Source: US9732085B2, “Pyridinone and pyrimidinone derivatives as factor Xia” (ONO PHARMACEUTICAL CO., LTD., priority 2011, dated 2017)
Structures can show the parent of a compound that is named as a salt.

Molecular target: Human Factor XIa (Homo sapiens (Human), UniProt P03951)
Test: Factor XIa enzyme activity (chromogenic substrate S-2366)
Format: biochemical
Settings: Table 2, comparison with comparative compounds; read-out: In vitro FXIa inhibitory activity IC50
Procedure: Inhibitory activities of compounds of the present invention against factor XIa, Xa, XIIa, IXa, VIIa, plasma kallikrein or thrombin were evaluated using appropriate purified proteases and synthetic substrates. The rate of hydrolysis of the chromogenic substrate by the relevant protease was continuously measured at 405 nm.
Inhibitory activity against each enzyme was calculated as % inhibition using the equation described below. % Inhibition=[[(rate without compound)−(rate with compound)](rate without compound)]×100%. Each half maximal inhibitory concentration (IC50) value was determined by plotting the concentration of compound of the invention against the % inhibition. (1-1) Factor XIa Enzyme Activity
Human Factor XIa (Haematologic Technologies Inc.) activity was measured at an enzyme concentration of 0.1 U/mL in 150 mM NaCl, 5 mM KCl, 1 mg/mL PEG6000, 50 mM HEPES-NaOH (pH7.4) with 300 μM S-2366 (pyroGlu-Pro-Arg-pNA, Chromogenix).

Human Factor XIa, sequence (P03951 388-625): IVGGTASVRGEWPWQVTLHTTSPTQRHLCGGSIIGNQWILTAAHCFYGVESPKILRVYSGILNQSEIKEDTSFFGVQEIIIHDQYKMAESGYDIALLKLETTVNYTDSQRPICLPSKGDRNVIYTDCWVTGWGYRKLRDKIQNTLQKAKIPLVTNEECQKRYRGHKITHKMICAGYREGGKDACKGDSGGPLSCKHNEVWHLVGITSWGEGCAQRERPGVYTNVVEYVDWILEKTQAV
Human Factor XIa, sequence (P03951 19-387 partner): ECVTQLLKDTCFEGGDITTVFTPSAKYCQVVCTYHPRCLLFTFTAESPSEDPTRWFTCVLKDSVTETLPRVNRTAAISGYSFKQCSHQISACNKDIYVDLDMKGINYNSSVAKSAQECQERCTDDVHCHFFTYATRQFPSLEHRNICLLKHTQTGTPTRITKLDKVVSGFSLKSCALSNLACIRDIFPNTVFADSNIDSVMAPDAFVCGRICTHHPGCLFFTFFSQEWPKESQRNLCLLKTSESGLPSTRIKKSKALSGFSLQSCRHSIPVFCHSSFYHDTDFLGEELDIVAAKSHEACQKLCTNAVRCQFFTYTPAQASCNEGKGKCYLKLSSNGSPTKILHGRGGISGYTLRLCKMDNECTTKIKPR

| Compound | IC50 [nM] |
| --- | --- |
| COc1cc(Nc2ccc3n(c2=O)C(c2ccc(F)cc2)CCC3)ccc1-n1cnc(C)c1 (centres unmarked) [Comp. Ex 4, reference compound] | > 10000 |

Same assay, conditions: human Factor XIa 0.1 U/mL, 300 μM S-2366, pH7.4; read-out: In vitro FXIa inhibitory activity IC50

| Compound | IC50 [nM] |
| --- | --- |
| O=C(O)c1cc(-c2cnc([C@@H]3CCc4c(Cl)c(-c5cc(Cl)ccc5-n5cnnn5)cc(=O)n43)[nH]2)cs1 [Example 391, 4-(2-{(3S)-8-chloro-7-[5-chloro-2-(1H-tetrazol-1-yl)phenyl]-5-oxo-1,2,3,5-tetrahydro-3-indolizinyl}-1H-imidazol-5-yl)-2-thiophenecarboxylic acid trifluoroacetate] | 1.1 |
| COC(=O)Nc1ccc(-c2cnc([C@@H]3CCc4cc(-c5cc(Cl)ccc5-n5cc(C#N)nn5)cc(=O)n43)[nH]2)cc1 [Example 290, methyl[4-(2-{(3S)-7-[5-chloro-2-(4-cyano-1H-1,2,3-triazol-1-yl)phenyl]-5-oxo-1,2,3,5-tetrahydro-3-indolizinyl}-1H-imidazol-5-yl)phenyl]carbamate] | 2.5 |
| COC(=O)Nc1ccc(-c2cnc([C@@H]3CCc4cc(-c5cc(C)ccc5-n5cnnn5)cc(=O)n43)[nH]2)cc1 [Example 309, methyl[4-(2-{(3S)-7-[5-methyl-2-(1H-tetrazol-1-yl)phenyl]-5-oxo-1,2,3,5-tetrahydro-3-indolizinyl}-1H-imidazol-5-yl)phenyl]carbamate] | 8.3 |
| O=C1CCc2cc(-c3c[nH]c(C4CCc5cc(-c6cc(Cl)ccc6-n6cnnn6)cc(=O)n54)n3)ccc2N1 (centres unmarked) [Example 86, 6-(2-{7-[5-chloro-2-(1H-tetrazol-1-yl)phenyl]-5-oxo-1,2,3,5-tetrahydro-3-indolizinyl}-1H-imidazol-4-yl)-3,4-dihydro-2(1H)-quinolinone] | 3.9 |
| COC(=O)Nc1ccc(-c2cnc(C(C)n3ccc(-c4cc(Cl)ccc4-n4cnnn4)cc3=O)[nH]2)cc1 (centres unmarked) [Example 61, methyl{4-[2-(1-{4-[5-chloro-2-(1H-tetrazol-1-yl)phenyl]-2-oxo-1(2H)-pyridinyl}ethyl)-1H-imidazol-5-yl]phenyl}carbamate] | 14 |
| O=C(O)c1ccc(-c2[nH]c([C@@H]3CCc4cc(-c5cc(Cl)ccc5-n5cnnn5)cc(=O)n43)nc2F)s1 [Example 399, 5-(2-{(3S)-7-[5-chloro-2-(1H-tetrazol-1-yl)phenyl]-5-oxo-1,2,3,5-tetrahydro-3-indolizinyl}-4-fluoro-1H-imidazol-5-yl)-2-thiophenecarboxylic acid trifluoroacetate] | 1.1 |
| COC(=O)Nc1ccc(-c2cnc([C@@H]3CSc4cc(-c5cc(Cl)ccc5-n5cnnn5)cc(=O)n43)[nH]2)cc1 [Example 270, methyl[4-(2-{(3R)-7-[5-chloro-2-(1H-tetrazol-1-yl)phenyl]-5-oxo-2,3-dihydro-5H-[1,3]thiazolo[3,2-a]pyridin-3-yl}-1H-imidazol-5-yl)phenyl]carbamate] | 11 |
| O=C(O)c1cc(-c2cnc([C@@H]3CCc4nc(-c5cc(Cl)ccc5-n5cnnn5)cc(=O)n43)[nH]2)cs1 [Example 392, 4-(2-{(6S)-2-[5-chloro-2-(1H-tetrazol-1-yl)phenyl]-4-oxo-4,6,7,8-tetrahydropyrrolo[1,2-a]pyrimidin-6-yl}-1H-imidazol-5-yl)-2-thiophenecarboxylic acid hydrochloride] | 2.1 |
| Cc1cc(-c2cc(Cl)ccc2-n2cnnn2)cc(=O)n1Cc1ncc(-c2csc(C(=O)O)c2)[nH]1 [Example 400, 4-[2-({4-[5-chloro-2-(1H-tetrazol-1-yl)phenyl]-6-methyl-2-oxo-1(2H)-pyridinyl}methyl)-1H-imidazol-5-yl]-2-thiophenecarboxylic acid hydrochloride] | 13 |
| COC(=O)Nc1ccc(-c2nc(Cl)c(C3CCc4cc(-c5cc(Cl)ccc5-n5cnnn5)cc(=O)n43)[nH]2)cc1 (centres unmarked) [Example 241, methyl[4-(4-chloro-5-{7-[5-chloro-2-(1H-tetrazol-1-yl)phenyl]-5-oxo-1,2,3,5-tetrahydro-3-indolizinyl}-1H-imidazol-2-yl)phenyl]carbamate] | 4.8 |
| COCCOC(=O)Nc1ccc(-c2cnc(C3CCc4cc(-c5cc(Cl)ccc5-n5cnnn5)cc(=O)n43)[nH]2)cc1 (centres unmarked) [129(2), 2-methoxyethyl[4-(2-{7-[5-chloro-2-(1H-tetrazol-1-yl)phenyl]-5-oxo-1,2,3,5-tetrahydro-3-indolizinyl}-1H-imidazol-5-yl)phenyl]carbamate] | 4.6 |
| Nc1ccc(-c2cnc([C@@H]3CCc4cc(-c5cc(Cl)ccc5-n5cnnn5)cc(=O)n43)[nH]2)c(Cl)n1 [Example 210, (3S)-3-[5-(6-amino-2-chloro-3-pyridinyl)-1H-imidazol-2-yl]-7-[5-chloro-2-(1H-tetrazol-1-yl)phenyl]-2,3-dihydro-5(1H)-indolizinone] | 2.8 |
| COC(=O)Nc1ccc(-c2[nH]c([C@@H]3CCc4cc(-c5cc(Cl)ccc5-n5cnnn5)cc(=O)n43)nc2Cl)nc1 [Example 230, methyl[6-(4-chloro-2-{(3S)-7-[5-chloro-2-(1H-tetrazol-1-yl)phenyl]-5-oxo-1,2,3,5-tetrahydro-3-indolizinyl}-1H-imidazol-5-yl)-3-pyridinyl]carbamate] | 11 |
| COCCC(c1nc(Cl)c(-c2ccc(NC(=O)OC)cc2)[nH]1)n1ccc(-c2cc(Cl)ccc2-n2cnnn2)cc1=O (centres unmarked) [Example 264, methyl{4-[4-chloro-2-(1-{4-[5-chloro-2-(1H-tetrazol-1-yl)phenyl]-2-oxo-1(2H)-pyridinyl]-3-methoxypropyl)-1H-imidazol-5-yl}phenyl}carbamate] | 6.1 |
| COC(=O)Nc1ccc(-c2cnc(C3CCc4cc(-c5cc(Cl)ccc5-n5cnnn5)cc(=O)n43)[nH]2)s1 (centres unmarked) [Example 181, methyl[5-(2-{7-[5-chloro-2-(1H-tetrazol-1-yl)phenyl]-5-oxo-1,2,3,5-tetrahydro-3-indolizinyl}-1H-imidazol-5-yl)-2-thienyl]carbamate] | 47 |
| CCC(c1nc(-c2ccc(NC(=O)OC)cc2)c(Cl)[nH]1)n1ccc(-c2cc(Cl)ccc2-n2cnnn2)cc1=O (centres unmarked) [Example 60, methyl{4-[5-chloro-2-(1-{4-[5-chloro-2-(1H-tetrazol-1-yl)phenyl]-2-oxo-1(2H)-pyridinyl}propyl)-1H-imidazol-4-yl]phenyl}carbamate] | 7.2 |
| O=C(O)c1scc(-c2cnc([C@@H]3CCc4cc(-c5cc(Cl)ccc5-n5cnnn5)cc(=O)n43)[nH]2)c1F [Example 834, 4-(2-{(3S)-7-[5-chloro-2-(1H-tetrazol-1-yl)phenyl]-5-oxo-1,2,3,5-tetrahydro-3-indolizinyl}-1H-imidazol-5-yl)-3-fluoro-2-thiophenecarboxylic acid] | 1.6 |
| Nc1ccc(-c2[nH]c([C@@H]3CCc4cc(-c5cc(Cl)ccc5-n5cnnn5)cc(=O)n43)nc2Cl)cn1 [Example 198, (3S)-3-[5-(6-amino-3-pyridinyl)-4-chloro-1H-imidazol-2-yl]-7-[5-chloro-2-(1H-tetrazol-1-yl)phenyl]-2,3-dihydro-5(1H)-indolizinone] | 1.5 |
| O=C(O)c1ccc(-c2cnc([C@@H]3CCc4cc(-c5cc(Cl)ccc5-n5cnnn5)cc(=O)n43)[nH]2)s1 [Example 347, 5-(2-{(3S)-7-[5-chloro-2-(1H-tetrazol-1-yl)phenyl]-5-oxo-1,2,3,5-tetrahydro-3-indolizinyl}-1H-imidazol-5-yl)-2-thiophenecarboxylic acid] | 4.2 |
| O=C(O)c1cc(-c2cnc([C@@H]3CCc4cc(-c5cc(Cl)ccc5-n5cnnn5)cc(=O)n43)[nH]2)cs1 [Example 363, 4-(2-{(3S)-7-[5-chloro-2-(1H-tetrazol-1-yl)phenyl]-5-oxo-1,2,3,5-tetrahydro-3-indolizinyl}-1H-imidazol-5-yl)-2-thiophenecarboxylic acid hydrochloride] | 1.4 |
| COC(=O)Nc1ccc(-c2cnc(C(Cc3cccnc3)n3ccc(-c4cc(Cl)ccc4-n4cnnn4)cc3=O)[nH]2)cc1 (centres unmarked) [Example 278, methyl(4-{2-[1-{4-[5-chloro-2-(1H-tetrazol-1-yl)phenyl]-2-oxo-1(2H)-pyridinyl}-2-(3-pyridinyl)ethyl]-1H-imidazol-5-yl}phenyl)carbamate] | 5.7 |
| Nc1ccc(-c2cnc([C@@H]3CCc4cc(-c5cc(Cl)ccc5-n5cnnn5)cc(=O)n43)[nH]2)c(F)n1 [Example 216, (3S)-3-[5-(6-amino-2-fluoro-3-pyridinyl)-1H-imidazol-2-yl]-7-[5-chloro-2-(1H-tetrazol-1-yl)phenyl]-2,3-dihydro-5(1H)-indolizinone] | 3.8 |
| COC(=O)Nc1ccc(-c2nnc(C3CCc4cc(-c5cc(Cl)ccc5-n5cnnn5)cc(=O)n43)[nH]2)cc1 (centres unmarked) [Example 245, methyl[4-(5-{7-[5-chloro-2-(1H-tetrazol-1-yl)phenyl]-5-oxo-1,2,3,5-tetrahydro-3-indolizinyl}-4H-1,2,4-triazol-3-yl)phenyl]carbamate] | 17 |
| O=C(O)c1cc(-c2nc(F)c(C3CCc4cc(-c5cc(Cl)ccc5-n5cnnn5)cc(=O)n43)[nH]2)cs1 (centres unmarked) [Example 848, 4-(5-{7-[5-chloro-2-(1H-tetrazol-1-yl)phenyl]-5-oxo-1,2,3,5-tetrahydro-3-indolizinyl}-4-fluoro-1H-imidazol-2-yl)-2-thiophenecarboxylic acid] | 1.7 |
| O=C(O)c1ccc(-c2cnc([C@@H]3CCc4c(Cl)c(-c5cc(Cl)ccc5-n5cnnn5)cc(=O)n43)[nH]2)s1 [Example 387, 5-(2-{(3S)-8-chloro-7-[5-chloro-2-(1H-tetrazol-1-yl)phenyl]-5-oxo-1,2,3,5-tetrahydro-3-indolizinyl}-1H-imidazol-5-yl)-2-thiophenecarboxylic acid hydrochloride] | 1.6 |
